Laboratory results taken from patent US12064503B2, “High-potency vitamin C and sugar alcohol topical formulations” (ICB (an ABC), LLC, priority 2020, dated 2024).

Legend:
skin [1] = conditions: topical use of 4% HQ or 5% Vitamin C; cited from earlier work
[2] = Solubility in non-aqueous skin-compatible solvents; conditions: neat solvent
skin [3] = conditions: cream containing 10% MAP; cited from earlier work
skin [4] = conditions: topical; cited from earlier work
skin [5] = conditions: concentrations of 0.2%; clinical data from SEPPIC; cited from earlier work

O=C1O[C@H]([C@@H](O)CO)C(O)=C1O [AA, L-ascorbic acid]
improvement (skin [1]): 62.5%

CO[C@H]1CO[C@H]2[C@@H]1OC[C@H]2OC [Dimethyl isosorbide]
ability of the solvent to solubilize ascorbic acid [2]: very limited

Oc1ccc(O)cc1 [HQ, hydroquinone]
improvement (skin [1]): 93% | side-effects (skin [1]): 68.7%

O=C1O[C@H]([C@@H](O)CO)C([O-])=C1OP(=O)([O-])[O-].O=C1O[C@H]([C@@H](O)CO)C([O-])=C1OP(=O)([O-])[O-].[Mg+2].[Mg+2].[Mg+2] [MAP, magnesium ascorbyl phosphate]
brighten/lighten the appearance of the skin (skin [3]): effectively brighten/lighten

CC(C)(CO)[C@@H](O)C(=O)NCCCO [Panthenol]
concentration at which inhibition of transepidermal water loss is apparent (skin [4]): ≥ 1%

madecassoside
ability to reduce erythema (skin redness) (skin [5]): desirable ability to reduce erythema
